Source: patent US7858637B2, “Administration of TLR7 ligands and prodrugs thereof for treatment of infection by hepatitis C virus” (priority 2003, dated 2010)
Entries after “also recorded” stand apart in the source; their conditions may differ.

Experiments:
interferon alpha = assay: Interferon alpha plasma concentrations in mice; type: in vivo, mouse; conditions: for Mu-IFN-α plasma concentration, individual value / Mu-IFN-α plasma concentration, mean: mice, two oral 50 mg/kg doses 4 hours apart
From the text: Not only can one measure the plasma concentrations of isatoribine arising from oral administration of the said prodrug(s) but also the extensive immunological research conducted in the mouse has provided reagents suitable for measuring the levels of interferon alpha, a cytokine of interest reflecting one of the desired biologic activities of isatoribine.

HCV = HCV viral load reduction in patients, intravenous isatoribine; type: in vivo, human; conditions: 800 mg QD×7 days IV infusion
Description: All doses were administered by constant rate infusion over a 60-minute period, except the 800 mg dose was administered over an 80-minute period. The flow rate for each dose was as follows: 3.33 mL/min for the 200 mg dose; 6.67 mL/min for the 400 mg dose; 8.33 mL/min for the 500 mg dose; or 10.0 mL/min for the 600 mg and 800 mg dose. Four to twelve patients were enrolled in each of the dose groups (200 mg, 400 mg, 600 mg and 800 mg per dose) and received once daily intravenous infusions for 7 days. Prior to dosing, a blood sample was drawn from each patient for assessment of the genotype of the HCV virus. […] The viral load was measured by the branched DNA method ([…]3.0 bDNA assay, Bayer Diagnostics). For plasma HCV RNA, the maximum change from the pre-treatment baseline was estimated using log-transformed values.

HCV replicon = assay: HCV replicon-based viral bioassay with supernatants of compound-treated PBMC; type: cell-based, hepatitis C virus
Description: A quantitative assay was developed which is based on measuring the activity of the luciferase reporter gene that was integrated into an HCV replicon. By using this system, interferons from TLR7 agonist-treated PBMCs were measured and their inhibitory activity was assessed using the luciferase reporter replicon.
Human PBMCs isolated from a healthy donor were placed in replicate cell culture wells (5×10^6 cells per well). The PBMCs are incubated in the absence of test compounds at 37° C. in a humidified atmosphere containing 5% CO2 for 24 hours to allow stabilization to the culture conditions, and then the TLR7 ligand or a drug free control is added to replicate wells containing PBMCs from the same donor. The concentrations of TLR7 ligand may be varied to suit the particular experiment, and the PBMC cultures are then incubated at 37° C. in a humidified atmosphere containing 5% CO2 for eight hours. Samples of cell culture supernatant are taken at the eight hour time point (or twenty four hour time point in case of Loxoribine and its prodrugs) from TLR7 ligand treated and control wells and are assayed for interferon-alpha production by ELISA. Supernatants from compound-treated cells and a no-drug control were diluted at 1:10, 1:100, and 1:1000 in RPMI media and applied to a 96-well plate of Huh7 hepatocyte cells containing the luciferase reporter replicon. Cells were incubated for 48 hours at 37° C. in a tissue culture incubator.
After the incubation period, the 96-well plates are washed 2× with PBS and are lysed with passive lysis buffer (Promega). Plates are shaken at room temperature for 20 minutes and standard luciferase assay reagent (Promega) is added to each well by injection and the plate is read on an Lmax luminometer (Molecular Devices).
A supernatant collected from PBMC cells non-exposed to the compound and diluted as specified in the first column was used as a control (“Blank supernatant”). The PBMC cells were isolated from a single blood donor as specified.

[1] = Pharmacokinetics of isatoribine in beagle dogs after oral dosing; conditions: both, dog, in vivo, 50 mg/kg
Description: The effect of a prodrug (val-isatoribine, 24) on the systemic exposure to isatoribine (21) after oral administration to beagle dogs was investigated. Isatoribine was prepared in sodium bicarbonate solution. Val-isatoribine and isatoribine were prepared as the following formulations, which were chosen to ensure solubility: Formulation 1: […] Formulation 2: […] Four male and four female adult beagle dogs weighing between 15 to 27 kg and approximately 1-2 years old were used at the beginning of the study. The animals were divided into 2 groups of 2 males and 2 females each. The test material was administered by gavage on Days 1 and 8, allowing a 7 day washout period between administrations. […] The plasma was frozen at −70° C. until analysis. The plasma was analyzed for isatoribine by an HPLC-MS/MS assay.

[2] = oral dosing, data of Tables 15, 16 and 17

**Q.** For `Nc1nc2c(sc(=O)n2[C@@H]2O[C@H](CO)[C@@H](O)[C@H]2O)c(=O)[nH]1` [Compound 21, 7-thia-8-oxoguanosine], which “Mu-IFN-α plasma concentration, individual value” (interferon alpha; time 1.50 h (first dose), listed as Isatoribine, 50 mg/kg) is on record?
**A.** BQL^100 pg/mL; also recorded: BQL^25 pg/mL

**Q.** And the “Mu-IFN-α plasma concentration, mean” value (interferon alpha; time 2.00 h (first dose))?
**A.** 0.00 pg/mL

**Q.** And the “Mu-IFN-α plasma concentration, individual value” (interferon alpha; time 2.00 h (first dose), listed as Isatoribine, 50 mg/kg)?
**A.** BQL^25 pg/mL; also recorded: BQL^75 pg/mL

**Q.** What about the “Mu-IFN-α plasma concentration, individual value” (interferon alpha; time 3.00 h (first dose)) of the same compound?
**A.** BQL^25 pg/mL

**Q.** And the “Mu-IFN-α plasma concentration, mean” value (interferon alpha; time 3.00 h (first dose))?
**A.** 0.00 pg/mL

**Q.** And the “Mu-IFN-α plasma concentration, individual value” (interferon alpha; time 4.00 h (first dose))?
**A.** BQL^25 pg/mL

**Q.** And the “Mu-IFN-α plasma concentration, mean” value (interferon alpha; time 4.00 h (first dose))?
**A.** 0.00 pg/mL

**Q.** And the “Mu-IFN-α plasma concentration, individual value” (interferon alpha; time 4.03 h (second dose))?
**A.** BQL^25 pg/mL

**Q.** And the “Mu-IFN-α plasma concentration, mean” value (interferon alpha; time 4.03 h (second dose))?
**A.** 0.00 pg/mL

**Q.** What about the “Mu-IFN-α plasma concentration, individual value” (interferon alpha; time 4.08 h (second dose)) of the same compound?
**A.** BQL^25 pg/mL

**Q.** And the “Mu-IFN-α plasma concentration, mean” value (interferon alpha; time 4.08 h (second dose))?
**A.** 0.00 pg/mL

**Q.** And the “Mu-IFN-α plasma concentration, individual value” (interferon alpha; time 4.25 h (second dose))?
**A.** BQL^25 pg/mL

**Q.** What about the “Mu-IFN-α plasma concentration, mean” value (interferon alpha; time 4.25 h (second dose)) of the same compound?
**A.** 0.00 pg/mL

**Q.** What about the “Mu-IFN-α plasma concentration, mean” value (interferon alpha; time 4.50 h (second dose)) of the same compound?
**A.** 0.00 pg/mL

**Q.** And the “Mu-IFN-α plasma concentration, individual value” (interferon alpha; time 4.50 h (second dose), listed as Isatoribine, 50 mg/kg)?
**A.** BQL^50 pg/mL; also recorded: BQL^37.5 pg/mL

**Q.** And the “Mu-IFN-α plasma concentration, individual value” (interferon alpha; time 5.00 h (second dose))?
**A.** BQL^50 pg/mL

**Q.** What about the “Mu-IFN-α plasma concentration, mean” value (interferon alpha; time 5.00 h (second dose)) of the same compound?
**A.** 0.00 pg/mL

**Q.** And the “Mu-IFN-α plasma concentration, individual value” (interferon alpha; time 5.50 h (second dose))?
**A.** BQL^37.5 pg/mL

**Q.** And the “Mu-IFN-α plasma concentration, mean” value (interferon alpha; time 5.50 h (second dose))?
**A.** 0.00 pg/mL

**Q.** And the “Mu-IFN-α plasma concentration, mean” value (interferon alpha; time 6.00 h (second dose))?
**A.** 0.00 pg/mL

**Q.** What about the “Mu-IFN-α plasma concentration, individual value” (interferon alpha; time 6.00 h (second dose), listed as Isatoribine, 50 mg/kg) of the same compound?
**A.** BQL^50 pg/mL; also recorded: BQL^41.3 pg/mL; also recorded: BQL^37.5 pg/mL

**Q.** And the “Mu-IFN-α plasma concentration, individual value” (interferon alpha; time 7.00 h (second dose))?
**A.** BQL^50 pg/mL

**Q.** And the “Mu-IFN-α plasma concentration, mean” value (interferon alpha; time 7.00 h (second dose))?
**A.** 0.00 pg/mL

**Q.** What about the “Mu-IFN-α plasma concentration, mean” value (interferon alpha; time 8.00 h (second dose)) of the same compound?
**A.** 0.00 pg/mL

**Q.** What about the “Mu-IFN-α plasma concentration, individual value” (interferon alpha; time 8.00 h (second dose), listed as Isatoribine, 50 mg/kg) of the same compound?
**A.** BQL^50 pg/mL; also recorded: BQL^25 pg/mL

**Q.** What about the “mice with detectable interferon in their plasma” value (interferon alpha; [2]) of the same compound?
**A.** 4 of the 114

**Q.** What about the “proportion of mice exhibiting an interferon response” value (interferon alpha; [2]) of the same compound?
**A.** 4%

**Q.** And the “patients with plasma viral load decrease of more than 0.5 log 10 units” value (HCV)?
**A.** Eight of 12

**Q.** And the “mean change in plasma viral load (HCV RNA) from baseline” value (HCV; 12 patients)?
**A.** −0.76 log 10 units

**Q.** And the “range of change in plasma viral load (HCV RNA) from baseline” value (HCV; 12 patients)?
**A.** −2.85 to +0.21 log 10 units

**Q.** And the HCV replicon inhibition (HCV replicon; Table 3 No. 1, PBMC exposed 8 hours to 100 μM, donor FL72035, supernatant dilution 1:100)?
**A.** 100%

**Q.** What about the HCV replicon inhibition (HCV replicon; Table 3 No. 1, PBMC exposed 8 hours to 100 μM, donor FL72035, supernatant dilution 1:1000) of the same compound?
**A.** 94%

**Q.** What about the HCV replicon inhibition (HCV replicon; Table 3 No. 2, PBMC exposed 8 hours to 100 μM, donor FL75287, supernatant dilution 1:10) of the same compound?
**A.** 100%

**Q.** What about the HCV replicon inhibition (HCV replicon; Table 3 No. 2, PBMC exposed 8 hours to 100 μM, donor FL75287, supernatant dilution 1:100) of the same compound?
**A.** 87%

**Q.** What about the HCV replicon inhibition (HCV replicon; Table 3 No. 2, PBMC exposed 8 hours to 100 μM, donor FL75287, supernatant dilution 1:1000) of the same compound?
**A.** 6%

**Q.** And the HCV replicon inhibition (HCV replicon; Table 3 No. 3, PBMC exposed 24 hours to 100 μM, donor FL75864, supernatant dilution 1:10)?
**A.** 100%

**Q.** What about the HCV replicon inhibition (HCV replicon; Table 3 No. 3, PBMC exposed 24 hours to 100 μM, donor FL75864, supernatant dilution 1:100) of the same compound?
**A.** 99%

**Q.** What about the HCV replicon inhibition (HCV replicon; Table 3 No. 3, PBMC exposed 24 hours to 100 μM, donor FL75864, supernatant dilution 1:1000) of the same compound?
**A.** 64%

**Q.** And the “AUC Ratio (to isatoribine in bicarbonate solution)” value [1]?
**A.** 1.00

**Q.** And the “Cmax Ratio (to isatoribine in bicarbonate solution)” value [1]?
**A.** 1.00
